{"source": "PubChem BioAssay (NCI)", "test_in_all_cases": "NCI-60 cell line screen, 48 h", "key": {"[1]": {"test_system": "HL-60(TB) leukemia"}, "[2]": {"test_system": "UACC-257 melanoma"}, "[3]": {"test_system": "SK-OV-3 ovarian"}, "[4]": {"test_system": "TK-10 renal"}, "[5]": {"test_system": "EKVX NSCLC"}, "[6]": {"test_system": "UACC-62 melanoma"}, "[7]": {"test_system": "KM12 colon"}, "[8]": {"test_system": "HS 578T breast"}, "[9]": {"test_system": "SK-MEL-28 melanoma"}, "[10]": {"test_system": "NCI-H522 lung"}, "[11]": {"test_system": "U251 CNS"}, "[12]": {"test_system": "MDA-MB-435"}, "[13]": {"test_system": "MALME-3M melanoma"}, "[14]": {"test_system": "786-0 renal"}, "[15]": {"test_system": "LOX IMVI melanoma"}, "[16]": {"test_system": "NCI/ADR-RES ovarian"}, "[17]": {"test_system": "SNB-75 CNS"}, "[18]": {"test_system": "HCC-2998 colon"}, "[19]": {"test_system": "DU-145 prostate"}, "[20]": {"test_system": "A498 renal"}, "[21]": {"test_system": "CCRF-CEM leukemia"}, "[22]": {"test_system": "K-562 leukemia"}, "[23]": {"test_system": "SF-295 CNS"}, "[24]": {"test_system": "HCT-15 colon"}, "[25]": {"test_system": "COLO 205 colon"}, "[26]": {"test_system": "MDA-N"}, "[27]": {"test_system": "M14 melanoma"}, "[28]": {"test_system": "OVCAR-4 ovarian"}, "[29]": {"test_system": "CAKI-1 renal"}, "[30]": {"test_system": "MCF7 breast"}, "[31]": {"test_system": "SF-539 CNS"}, "[32]": {"test_system": "MOLT-4 leukemia"}, "[33]": {"test_system": "HOP-92 NSCLC"}, "[34]": {"test_system": "A549 NSCLC"}, "[35]": {"test_system": "SW-620 colon"}, "[36]": {"test_system": "HCT-116 colon"}, "[37]": {"test_system": "SK-MEL-2 melanoma"}, "[38]": {"test_system": "RXF 393 renal"}, "[39]": {"test_system": "PC-3 prostate"}, "[40]": {"test_system": "HT29 colon"}, "[41]": {"test_system": "ACHN renal"}, "[42]": {"test_system": "OVCAR-8 ovarian"}, "[43]": {"test_system": "SNB-19 CNS"}, "[44]": {"test_system": "SK-MEL-5 melanoma"}, "[45]": {"test_system": "SN12C renal"}, "[46]": {"test_system": "SR leukemia"}, "[47]": {"test_system": "OVCAR-3 ovarian"}, "[48]": {"test_system": "IGROV1 ovarian"}, "[49]": {"test_system": "NCI-H23 lung"}, "[50]": {"test_system": "NCI-H226 lung"}, "[51]": {"test_system": "HOP-62 NSCLC"}, "[52]": {"test_system": "OVCAR-5 ovarian"}, "[53]": {"test_system": "UO-31 renal"}, "[54]": {"test_system": "NCI-H460 lung"}, "[55]": {"test_system": "BT-549 breast"}, "[56]": {"test_system": "MDA-MB-231 breast"}}, "note": "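Following 48 hours of exposure in 96-well plates, responses at five concentrations were used to interpolate endpoints linearly. Abbreviation: GI50, concentration required for 50% inhibition of growth. TGI is the concentration that stops growth completely.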"}
{"smiles": "CC(=O)OC1CCC(OC(C)=O)[C@H]2[C@@H]1[C@@H]1S[C@H]2c2ccccc21", "note": "(some centres not stated)", "values": [{"measurement": "GI50", "setting": "[1]", "result": 22, "unit": "µg/mL"}, {"measurement": "GI50", "setting": "[2]", "result": 76.8, "unit": "µg/mL"}, {"measurement": "GI50", "setting": "[3]", "result": 4.09, "unit": "µg/mL"}, {"measurement": "GI50", "setting": "[4]", "result": 35.7, "unit": "µg/mL"}, {"measurement": "GI50", "setting": "[5]", "result": 54.8, "unit": "µg/mL"}, {"measurement": "GI50", "setting": "[6]", "result": 41.4, "unit": "µg/mL"}, {"measurement": "GI50", "setting": "[7]", "result": 49, "unit": "µg/mL"}, {"measurement": "GI50", "setting": "[8]", "result": 76.1, "unit": "µg/mL"}, {"measurement": "GI50", "setting": "[9]", "result": 97.3, "unit": "µg/mL"}, {"measurement": "GI50", "setting": "[10]", "result": 32.5, "unit": "µg/mL"}, {"measurement": "GI50", "setting": "[11]", "result": 81.9, "unit": "µg/mL"}, {"measurement": "GI50", "setting": "[12]", "result": 21.6, "unit": "µg/mL"}, {"measurement": "GI50", "setting": "[13]", "result": 62.1, "unit": "µg/mL"}, {"measurement": "GI50", "setting": "[14]", "result": 85.6, "unit": "µg/mL"}, {"measurement": "GI50", "setting": "[15]", "result": 80.6, "unit": "µg/mL"}, {"measurement": "GI50", "setting": "[16]", "result": 99.2, "unit": "µg/mL"}, {"measurement": "GI50", "setting": "[17]", "result": 48.1, "unit": "µg/mL"}, {"measurement": "GI50", "setting": "[18]", "result": 50.1, "unit": "µg/mL"}, {"measurement": "GI50", "setting": "[19]", "result": 85.3, "unit": "µg/mL"}, {"measurement": "GI50", "setting": "[20]", "result": 43.9, "unit": "µg/mL"}, {"measurement": "GI50", "setting": "[21]", "result": 36.4, "unit": "µg/mL"}, {"measurement": "GI50", "setting": "[22]", "result": 35.9, "unit": "µg/mL"}, {"measurement": "GI50", "setting": "[23]", "result": 36, "unit": "µg/mL"}, {"measurement": "GI50", "setting": "[24]", "result": 93.7, "unit": "µg/mL"}, {"measurement": "GI50", "setting": "[25]", "result": 59.1, "unit": "µg/mL"}, {"measurement": "GI50", "setting": "[26]", "result": 24.2, "unit": "µg/mL"}, {"measurement": "GI50", "setting": "[27]", "result": 27.9, "unit": "µg/mL"}, {"measurement": "GI50", "setting": "[28]", "result": 31.3, "unit": "µg/mL"}]}
{"smiles": "Nc1ccc2c(c1)Cc1ccccc1-2", "values": [{"measurement": "TGI", "setting": "[29]", "result": "> 100", "unit": "µM"}, {"measurement": "TGI", "setting": "[30]", "result": "> 100", "unit": "µM"}, {"measurement": "TGI", "setting": "[31]", "result": "> 100", "unit": "µM"}, {"measurement": "TGI", "setting": "[32]", "result": "> 100", "unit": "µM"}, {"measurement": "TGI", "setting": "[1]", "result": "> 100", "unit": "µM"}, {"measurement": "TGI", "setting": "[33]", "result": "> 100", "unit": "µM"}, {"measurement": "TGI", "setting": "[34]", "result": "> 100", "unit": "µM"}, {"measurement": "TGI", "setting": "[35]", "result": "> 100", "unit": "µM"}, {"measurement": "TGI", "setting": "[36]", "result": "> 100", "unit": "µM"}, {"measurement": "TGI", "setting": "[2]", "result": "> 100", "unit": "µM"}, {"measurement": "TGI", "setting": "[3]", "result": "> 100", "unit": "µM"}, {"measurement": "TGI", "setting": "[37]", "result": "> 100", "unit": "µM"}, {"measurement": "TGI", "setting": "[4]", "result": "> 100", "unit": "µM"}, {"measurement": "TGI", "setting": "[38]", "result": "> 100", "unit": "µM"}, {"measurement": "TGI", "setting": "[5]", "result": "> 100", "unit": "µM"}, {"measurement": "TGI", "setting": "[6]", "result": "> 100", "unit": "µM"}, {"measurement": "TGI", "setting": "[39]", "result": "> 100", "unit": "µM"}, {"measurement": "TGI", "setting": "[40]", "result": "> 100", "unit": "µM"}, {"measurement": "TGI", "setting": "[41]", "result": "> 100", "unit": "µM"}, {"measurement": "TGI", "setting": "[42]", "result": "> 100", "unit": "µM"}, {"measurement": "TGI", "setting": "[7]", "result": "> 100", "unit": "µM"}, {"measurement": "TGI", "setting": "[43]", "result": "> 100", "unit": "µM"}, {"measurement": "TGI", "setting": "[8]", "result": "> 100", "unit": "µM"}, {"measurement": "TGI", "setting": "[9]", "result": "> 100", "unit": "µM"}, {"measurement": "TGI", "setting": "[44]", "result": "> 100", "unit": "µM"}, {"measurement": "TGI", "setting": "[11]", "result": "> 100", "unit": "µM"}, {"measurement": "TGI", "setting": "[12]", "result": "> 100", "unit": "µM"}, {"measurement": "TGI", "setting": "[45]", "result": "> 100", "unit": "µM"}, {"measurement": "TGI", "setting": "[13]", "result": "> 100", "unit": "µM"}, {"measurement": "TGI", "setting": "[46]", "result": "> 100", "unit": "µM"}, {"measurement": "TGI", "setting": "[14]", "result": "> 100", "unit": "µM"}, {"measurement": "TGI", "setting": "[47]", "result": "> 100", "unit": "µM"}, {"measurement": "TGI", "setting": "[15]", "result": "> 100", "unit": "µM"}, {"measurement": "TGI", "setting": "[16]", "result": "> 100", "unit": "µM"}, {"measurement": "TGI", "setting": "[17]", "result": 94.3, "unit": "µM"}, {"measurement": "TGI", "setting": "[18]", "result": "> 100", "unit": "µM"}, {"measurement": "TGI", "setting": "[48]", "result": "> 100", "unit": "µM"}, {"measurement": "TGI", "setting": "[20]", "result": "> 100", "unit": "µM"}, {"measurement": "TGI", "setting": "[21]", "result": "> 100", "unit": "µM"}, {"measurement": "TGI", "setting": "[22]", "result": "> 100", "unit": "µM"}, {"measurement": "TGI", "setting": "[49]", "result": "> 100", "unit": "µM"}, {"measurement": "TGI", "setting": "[50]", "result": "> 100", "unit": "µM"}, {"measurement": "TGI", "setting": "[23]", "result": "> 100", "unit": "µM"}, {"measurement": "TGI", "setting": "[51]", "result": "> 100", "unit": "µM"}, {"measurement": "TGI", "setting": "[24]", "result": "> 100", "unit": "µM"}, {"measurement": "TGI", "setting": "[52]", "result": "> 100", "unit": "µM"}, {"measurement": "TGI", "setting": "[25]", "result": "> 100", "unit": "µM"}, {"measurement": "TGI", "setting": "[26]", "result": "> 100", "unit": "µM"}, {"measurement": "TGI", "setting": "[53]", "result": "> 100", "unit": "µM"}, {"measurement": "TGI", "setting": "[54]", "result": "> 100", "unit": "µM"}, {"measurement": "TGI", "setting": "[27]", "result": "> 100", "unit": "µM"}, {"measurement": "TGI", "setting": "[28]", "result": "> 100", "unit": "µM"}, {"measurement": "TGI", "setting": "[55]", "result": "> 100", "unit": "µM"}, {"measurement": "TGI", "setting": "[56]", "result": "> 100", "unit": "µM"}]}
